US6476051B2, “Antipsychotic heterocycle compounds” (Bristol-Myers Squibb Company, priority 1999, dated 2002)
Where two headings read alike, the source gives them in different places.

Assays:
[1] = target: T1, recombinant human dopamine D2L receptors (Homo sapiens, UniProt P14416); assay: Dopamine binding protocol ([3H]-spiperone binding, HEK-D2L cell membranes)
T1 construct: expressed in transfected cells; host or cells: HEK-293 (HEK-D2L cells), membrane homogenates
Description: Like many clinically effective antipsychotic agents, the compounds of Formula I also are antagonists at the human D2L receptor as determined by [^3H]-spiperone binding studies using human D2L receptors stably expressed in HEK-293 cells.
HEK-293 cells that stably express recombinant human dopamine D2L receptors (HEK-D2L cells) were grown at 37° C. in 5% CO2 as a monolayer in medium consisting of EMEM supplemented with 10% fetal bovine serum and G418 sulfate (500 μg/ml). To prepare membranes for radioligand binding experiments, cells were rinsed twice with phosphate-buffered saline (138 mM NaCl, 4.1 mM KCl, 5.1 mM Na2PO4, 1.5 mM […] 11.1 mM glucose, pH 7.4), and incubated for 5-10 min. at 4° C. in hypotonic lysis buffer consisting of 10 mM Tris (pH 7.4) and 5 mM EDTA. Cells were transferred from plates to polypropylene tubes (16×100 mm), homogenized and centrifuged at 32,000×g for 20 min. Following centrifugation, pellets were resuspended by homogenization in buffer consisting of 50 mM Tris (pH 7.7 at 25° C.) and 1 mM EDTA. Homogenates were stored at −80° C. until needed. On the day of an experiment, homogenates were thawed then centrifuged at 32,000×g for 20 min. Following centrifugation, supernatants were discarded and pellets were resuspended in assay buffer consisting of 50 mM Tris (pH 7.4 at 25° C.), 1 mM EDTA and 6 mM MgCl2. Membrane homogenates (˜5 μg) were incubated with 150 pM [^3H]-spiperone (Amersham Life Science) and increasing concentrations of test compounds for 1.5 hours at 22° C. in a total volume of 400 μl. Reactions were stopped by addition of ice-cold assay buffer and filtration over glass fiber filters (Whatman GFB, pre-soaked in 0.05% polyethylenimine) using a microtitre format Brandel cell harvester. Filters were washed with 3 ml of ice-cold assay buffer. Non-specific binding was defined with 2 μM (+)butaclamol. Ki values were calculated using the method of Cheng and Prusoff (1973). Protein concentrations were determined by the method of Bradford (1976) with BSA as a standard.
Test data IC50 values lower than 250 nM are considered to reflect affinity for dopamine D2L receptors.

[2] = target: T2, human serotonin transporters (Homo sapiens, UniProt P31645); assay: Serotonin transporter binding assay ([3H]-citalopram binding, HEK-hSERT cell membranes)
T2 construct: expressed in transfected cells; host or cells: HEK-293 (HEK-hSERT cells), membrane homogenates
Source text: The compounds of Formula I bind potently to the human 5-HT transporter and inhibit the re-uptake of endogenous serotonin. Selective serotonin reuptake inhibitors (SSRIs) are effective for the treatment of mental depression and have been reported to be useful for treating chronic pain (see: R. W. Fuller, Pharmacologic Modification of Serotonergic Function: Drugs for the Study and Treatment of Psychiatric and Other Disorders,” J. Clin. Psychiatry, 47:4 (Suppl.) April 1986, pp. 4-8). Compounds of the present invention are also envisioned to be useful for treating psychosis, acute mania, mild anxiety states or depression with secondary psychotic episodes. The present compounds are also envisioned to be useful in treating obsessive-compulsive disorders, feeding disorders, anxiety disorders and panic disorders.
HEK-293 cells that stably express human serotonin transporters (HEK-hSERT cells) were grown at 37° C. in 5% CO2 as a monolayer in medium consisting of EMEM supplemented with 10% fetal bovine serum and G418 sulfate (500 μg/ml). To prepare membranes for radioligand binding experiments, cells were rinsed twice with phosphate-buffered saline (138 mM NaCl, 4.1 mM KCl, 5.1 mM Na2PO4, 1.5 mM […], 11.1 mM glucose, pH 7.4). Cells were transferred from plates to polypropylene tubes (16×100 mm), centrifuged at 1,200×g for 5 min and were frozen at −80° C. until assay. Following centrifugation, pellets were resuspended by homogenization in buffer consisting of 50 mM Tris (pH 7.7 at 25° C.), 120 mM NaCl and 5 mM KCl and then centrifuged at 32,000×g for 10 min. Following centrifugation, supernatants were discarded and pellets were resuspended in buffer consisting of 50 mM Tris (pH 7.4 at 25° C.), 150 mM NaCl and 5 mM KCl. Membrane homogenates (200 μl/plate) were incubated with 1 nM [^3H]-citalopram (specific activity=85 Ci/mmol) and increasing concentrations of test compounds for 1 hour at 25° C. in a total volume of 250 μl. The assay buffer consisted of 50 mM Tris (pH 7.4 at 25° C.), 120 mM NaCl and 5 mM KCl (pH 7.4 with conc. HCl). Plates were incubated for 1 hour at 25° C., then filtered through 0.5% PEI treated Whatman GF/B filters using a Brandel cell harvester. Filters were washed three times with 3 ml of ice-cold tris wash buffer. Non-specific binding was defined with 10 μM fluoxetine. Amount of radioligand bound in the presence and absence of competitor was analyzed by plotting (−)log drug concentration versus the amount of radioligand specifically bound. The midpoint of the displacement curve (IC50, nM), signifies the potency. Ki values were calculated using the method of Cheng and Prusoff (1973).
Substances which inhibit the re-uptake of serotonin are recognized to be effective antidepressants (Selective Serotonin Reuptake Inhibitors. Edited by J P Feighner and W F Boyer, Chichester, England. John Wiley & Sons, 1991, pp 89-108). Test data IC50 values lower than 250 nM are considered to reflect activity as an inhibitor of serotonin re-uptake.

[3] = [3H]-spiperone, HEK-D2L membranes, read-out: dopamine D2L ligands with Ki
[4] = [3H]-citalopram, HEK-hSERT membranes, read-out: inhibit the re-uptake of serotonin with Ki

T1 sequence (P14416 whole entry): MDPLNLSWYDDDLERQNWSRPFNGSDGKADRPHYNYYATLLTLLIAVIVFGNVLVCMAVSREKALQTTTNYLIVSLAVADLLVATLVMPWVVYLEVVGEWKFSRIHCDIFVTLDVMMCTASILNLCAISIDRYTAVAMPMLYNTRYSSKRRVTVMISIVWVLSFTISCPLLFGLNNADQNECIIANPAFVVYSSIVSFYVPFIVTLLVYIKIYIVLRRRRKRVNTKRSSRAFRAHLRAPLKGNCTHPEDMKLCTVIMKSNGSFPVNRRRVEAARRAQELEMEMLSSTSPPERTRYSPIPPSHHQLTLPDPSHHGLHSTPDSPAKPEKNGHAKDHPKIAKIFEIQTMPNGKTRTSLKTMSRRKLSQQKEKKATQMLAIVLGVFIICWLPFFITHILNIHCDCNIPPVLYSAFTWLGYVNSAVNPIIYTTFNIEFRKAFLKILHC
T2 sequence (P31645 whole entry): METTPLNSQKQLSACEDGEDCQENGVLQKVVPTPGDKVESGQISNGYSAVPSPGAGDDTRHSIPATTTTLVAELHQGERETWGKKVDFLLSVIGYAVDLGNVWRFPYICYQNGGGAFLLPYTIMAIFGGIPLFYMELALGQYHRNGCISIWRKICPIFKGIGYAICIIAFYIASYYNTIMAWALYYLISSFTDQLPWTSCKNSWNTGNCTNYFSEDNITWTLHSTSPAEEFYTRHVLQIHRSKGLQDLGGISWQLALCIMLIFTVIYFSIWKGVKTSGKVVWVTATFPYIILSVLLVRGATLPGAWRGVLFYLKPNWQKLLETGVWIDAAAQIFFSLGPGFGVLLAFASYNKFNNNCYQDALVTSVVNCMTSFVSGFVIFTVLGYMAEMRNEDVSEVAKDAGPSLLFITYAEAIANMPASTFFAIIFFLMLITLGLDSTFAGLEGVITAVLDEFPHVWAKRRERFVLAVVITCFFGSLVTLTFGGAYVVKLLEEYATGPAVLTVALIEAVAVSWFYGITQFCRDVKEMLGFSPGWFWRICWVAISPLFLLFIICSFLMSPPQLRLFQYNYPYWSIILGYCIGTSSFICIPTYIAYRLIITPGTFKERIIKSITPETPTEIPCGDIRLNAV

Row | SMILES | Ki [1] [nM] | Ki [2] [nM] | Ki [1, 3] [nM] | Ki [2, 4] [nM]
1 | Cc1nc2cc(OCCCN3CC=C(c4c[nH]c5c(F)cccc45)CC3)ccc2s1 [Example 17, 5-{3-[4-(7-fluoroindol-3-yl)-1,2,5,6-tetrahydropyrid-1-yl]propoxy}-2-methylbenzothiazole] | < 100 | < 100 | – | –
2 | Cc1nc2cc(OCCCCCN3CC=C(c4c[nH]c5cc(Cl)ccc45)CC3)ccc2s1 [Example 24, 5-{5-[4-(6-chloroindol-3-yl)-1,2,5,6-tetrahydropyrid-1-yl]pentoxy}-2-methylbenzothiazole] | < 100 | < 100 | – | –
3 | Cc1nc2cc(OCCCN3CC=C(c4c[nH]c5ccc(C#N)cc45)CC3)ccc2s1 [Example 12, 5-{3-[4-(5-cyanoindol-3-yl)-1,2,5,6-tetrahydropyrid-1-yl]propoxy}-2-methylbenzothiazole] | < 100 | < 100 | – | –
4 | N#Cc1ccc2[nH]cc(C3CCN(CCCOc4ccccc4F)CC3)c2c1 [Example 5, 3-{1-[3-(2-fluorophenoxy)propyl]-4-piperidinyl}-5-cyanoindole] | – | – | < 100 | < 100
5 | Cc1nc2cc(OCCCCN3CC=C(c4c[nH]c5cc(Br)ccc45)CC3)ccc2s1 [Example 26, 5-{4-[4-(6-bromoindol-3-yl)1,2,5,6-tetrahydropyrid-1-yl]butoxy}-2-methylbenzothiazole] | < 100 | < 100 | – | –
6 | Cc1nc2cc(OCCCCN3CC=C(c4c[nH]c5ccc(Cl)cc45)CC3)ccc2s1 [Example 20, 5-{4-[4-(5-chloroindol-3-yl)1,2,5,6-tetrahydropyrid-1-yl]butoxy}-2-methylbenzothiazole] | < 100 | < 100 | – | –
7 | Cc1nc2cc(OCCCCN3CC=C(c4c[nH]c5cccc(F)c45)CC3)ccc2s1 [Example 13, 5-{4-[4-(4-fluoroindol-3-yl)1,2,5,6-tetrahydropyrid-1-yl]butoxy}-2-methylbenzothiazole] | < 100 | < 100 | – | –
8 | Cc1nc2cc(OCCCN3CC=C(c4c[nH]c5cccc(F)c45)CC3)ccc2s1 [Example 11, 5-{3-[4-(4-fluoroindol-3-yl)-1,2,5,6-tetrahydropyrid-1-yl]propoxy}-2-methylbenzothiazole] | < 100 | < 100 | – | –
9 | Cc1nc2cc(OCCCCCN3CC=C(c4c[nH]c5c(F)cccc45)CC3)ccc2s1 [Example 19, 5-{5-[4-(7-fluoroindol-3-yl)-1,2,5,6-tetrahydropyrid-1-yl]pentoxy}-2-methylbenzothiazole] | < 100 | < 100 | – | –
10 | Cc1nc2cc(OCCCCN3CC=C(c4c[nH]c5ccc(C#N)cc45)CC3)ccc2s1 [Example 38, 5-{4-[4-(5-cyanoindol-3-yl)-1,2,5,6-tetrahydropyrid-1-yl]butoxy}-2-methylbenzothiazole] | < 100 | < 100 | – | –
11 | Cc1nc2cc(OCCCCCN3CC=C(c4c[nH]c5ccc(F)cc45)CC3)ccc2s1 [Example 16, 5-{5-[4-(5-fluoroindol-3-yl)-1,2,5,6-tetrahydropyrid-1-yl]pentoxy}-2-methylbenzothiazole] | < 100 | < 100 | – | –
12 | Cc1nc2cc(OCCCN3CC=C(c4c[nH]c5cc(Cl)ccc45)CC3)ccc2s1 [Example 22, 5-{3-[4-(6-chloroindol-3-yl)-1,2,5,6-tetrahydropyrid-1-yl]propoxy}-2-methylbenzothiazole] | < 100 | < 100 | – | –
13 | COc1ccccc1OCCCN1CCC(c2c[nH]c3ccc(C#N)cc23)CC1 [Example 7, 3-{1-[3-(2-methoxyphenoxy)propyl]-4-piperidinyl}-5-cyanoindole] | – | – | < 100 | < 100
14 | N#Cc1ccc2[nH]cc(C3CCN(CCCOc4ccccc4)CC3)c2c1 [Example 4, 3-[1-(3-phenoxypropyl)-4-piperidinyl]-5-cyanoindole] | – | – | < 100 | < 100
15 | N#Cc1ccc2[nH]cc(C3CCN(CCCOc4ccc(F)cc4)CC3)c2c1 [Example 6, 3-{1-[3-(4-fluorophenoxy)propyl]-4-piperidinyl}-5-cyanoindole] | – | – | < 100 | < 100
16 | COc1ccc2[nH]cc(C3=CCN(CCCOc4ccc5sc(C)nc5c4)CC3)c2c1 [Example 31, 5-{3-[4-(5-methoxyindol-3-yl)-1,2,5,6-tetrahydropyrid-1-yl]propoxy}-2-methylbenzothiazole] | < 100 | < 100 | – | –
17 | Cc1nc2cc(OCCCN3CC=C(c4c[nH]c5ccc(F)cc45)CC3)ccc2s1 [Example 34, 5-{3-[4-(5-fluoroindol-3-yl)-1,2,5,6-tetrahydropyrid-1-yl]propoxy}-2-methylbenzothiazole] | < 100 | < 100 | – | –
18 | Cc1nc2cc(OCCCCCN3CC=C(c4c[nH]c5c(Br)cccc45)CC3)ccc2s1 [Example 30, 5-{5-[4-(7-bromoindol-3-yl)-1,2,5,6-tetrahydropyrid-1-yl]pentoxy}-2-methylbenzothiazole] | < 100 | < 100 | – | –
19 | COc1ccc(OCCCN2CCC(c3c[nH]c4ccc(C#N)cc34)CC2)cc1OC [Example 10, 3-{1-[3-(3,4-dimethoxyphenoxy)propyl]-4-piperidinyl}-5-cyanoindole] | – | – | < 100 | < 100
20 | Cc1nc2cc(OCCCCN3CC=C(c4c[nH]c5c(F)cccc45)CC3)ccc2s1 [Example 18, 5-{4-[4-(7-fluoroindol-3-yl)1,2,5,6-tetrahydropyrid-1-yl]butoxy}-2-methylbenzothiazole] | < 100 | < 100 | – | –
21 | Cc1nc2cc(OCCCN3CCC(Cc4cccc5c4OCO5)CC3)ccc2s1 [Example 41, 5-{3-[4-(2H-benzo[d]1,3-dioxolan-4-ylmethyl)piperidinyl]propoxy}-2-methylbenzothiazole] | – | – | < 100 | < 100
22 | Cc1nc2cc(OCCCN3CCC(Cc4cc(F)ccc4F)CC3)ccc2s1 [Example 45, 5-(3-{4-[(2,-5-difluorophenyl)methyl]piperidinyl}propoxy)-2-methylbenzothiazole] | – | – | < 100 | < 100
23 | COc1cccc(OCCCN2CCC(c3c[nH]c4ccc(C#N)cc34)CC2)c1 [Example 8, 3-{1-[3-(3-methoxyphenoxy)propyl]-4-piperidinyl}-5-cyanoindole] | – | – | < 100 | < 100
24 | Cc1nc2cc(OCCCN3CCC(Cc4cc(F)ccc4Br)CC3)ccc2s1 [Example 44, 5-(3-{4-[(2-bromo-5-fluorophenyl)methyl]piperidinyl}propoxy)-2-methylbenzothiazole] | – | – | < 100 | < 100
